Test results from patent US20110160166A1, “Therapeutic composition for the treatment and prevention of athlete's foot and fungal infections of the nail and surrounding tissues” (priority 2009, published 2011).

Legend:
nail fungus = settings: after 48 weeks of daily topical treatment; cited from earlier work
toenail infections = settings: cited from earlier work
fingernail infections = settings: terbinafine; 6 weeks of treatment, assessment at 18 weeks after completion of therapy; cited from earlier work
[1] = biological target: Cytochrome P450 2D6 isozyme (Homo sapiens, UniProt P10635); settings: cited from earlier work
Sequence of Cytochrome P450 2D6 isozyme (P10635 whole entry): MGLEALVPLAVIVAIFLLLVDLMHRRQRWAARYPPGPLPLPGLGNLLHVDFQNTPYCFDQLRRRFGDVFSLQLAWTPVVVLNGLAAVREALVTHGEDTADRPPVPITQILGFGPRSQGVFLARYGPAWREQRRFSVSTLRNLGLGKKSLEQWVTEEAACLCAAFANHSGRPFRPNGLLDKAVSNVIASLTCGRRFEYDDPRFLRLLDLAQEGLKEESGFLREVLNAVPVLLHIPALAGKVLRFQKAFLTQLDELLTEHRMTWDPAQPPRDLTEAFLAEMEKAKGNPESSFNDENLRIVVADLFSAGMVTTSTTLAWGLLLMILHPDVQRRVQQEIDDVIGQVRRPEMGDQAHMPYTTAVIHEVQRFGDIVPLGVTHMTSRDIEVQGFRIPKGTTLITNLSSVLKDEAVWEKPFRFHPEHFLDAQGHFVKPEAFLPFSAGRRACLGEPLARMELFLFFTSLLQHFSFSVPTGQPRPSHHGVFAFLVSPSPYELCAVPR

[2] = From the text: Salicylic acid USP is well known as a strongly antimicrobial pharmaceutical ingredient. It is currently approved by US FDA as an Over-the-Counter active ingredient in anti-dandruff and anti-acne medicaments. Salicylic acid is a skin and eye irritant and a keratolytic, and must be used at low concentrations when applied to human tissue.

Which “patients who achieved clear or almost clear nails” value (nail fungus) does the source give for `Cc1cc(C2CCCCC2)n(O)c(=O)c1` [Ciclopirox 8%, Ciclopirox] here?
Its value is less than 12%.

What does the source list for `CN(C/C=C/C#CC(C)(C)C)Cc1cccc2ccccc12` [terbinafine]?
cure rates for toenail infections (toenail infections; terbinafine 250 mg oral, 12 weeks treatment, 36 weeks follow-up after completion of therapy): 38%-59%; clinical relapse rate (toenail infections; terbinafine, toenail infections): ~15%; cure rates for fingernail infections (fingernail infections): 59-79%; inhibition of Cytochrome P450 2D6 isozyme [1]: inhibitor

With `O=C(O)c1ccccc1O` [Salicylic acid] as the compound, how does the “keratolytic and irritant effects” value ([2]; formulated into an anhydrous base, applied to human nail and surrounding tissues) read?
The value was “dramatically reduced or eliminated”.

What about the “irritation experienced by the subject” value ([2]; high concentrations in anhydrous base) of the same compound?
The value was “no irritation”.
